# ChEMBL document CHEMBL4321837, “Discovery of Potent and Orally Effective Dual Janus Kinase 2/FLT3 Inhibitors for the Treatment of Acute Myelogenous Leukemia and Myeloproliferative Neoplasms” (J Med Chem, 2019)
# The source made the active and inactive calls. The rule behind the calls is not given here.
# Key:
# [1] = Toxicity in NOD/SCID mouse xenografted with human SET2 cells overexpressing JAK2 V617F mutant assessed as body weight at 30 to 60 mg/kg, po qd for 18 days; type: organism-based; conditions: in vivo, 432 h
# [2] = target: T1, Tyrosine-protein kinase JAK3 (Homo sapiens, UniProt P52333); assay: Inhibition of human JAK3 (781 to end residues) using GGEEEEYFELVKK as substrate after 40 mins in presence of [gamma33P]-ATP by scintillation counting based radiometric assay
# T1 sequence (P52333 whole entry): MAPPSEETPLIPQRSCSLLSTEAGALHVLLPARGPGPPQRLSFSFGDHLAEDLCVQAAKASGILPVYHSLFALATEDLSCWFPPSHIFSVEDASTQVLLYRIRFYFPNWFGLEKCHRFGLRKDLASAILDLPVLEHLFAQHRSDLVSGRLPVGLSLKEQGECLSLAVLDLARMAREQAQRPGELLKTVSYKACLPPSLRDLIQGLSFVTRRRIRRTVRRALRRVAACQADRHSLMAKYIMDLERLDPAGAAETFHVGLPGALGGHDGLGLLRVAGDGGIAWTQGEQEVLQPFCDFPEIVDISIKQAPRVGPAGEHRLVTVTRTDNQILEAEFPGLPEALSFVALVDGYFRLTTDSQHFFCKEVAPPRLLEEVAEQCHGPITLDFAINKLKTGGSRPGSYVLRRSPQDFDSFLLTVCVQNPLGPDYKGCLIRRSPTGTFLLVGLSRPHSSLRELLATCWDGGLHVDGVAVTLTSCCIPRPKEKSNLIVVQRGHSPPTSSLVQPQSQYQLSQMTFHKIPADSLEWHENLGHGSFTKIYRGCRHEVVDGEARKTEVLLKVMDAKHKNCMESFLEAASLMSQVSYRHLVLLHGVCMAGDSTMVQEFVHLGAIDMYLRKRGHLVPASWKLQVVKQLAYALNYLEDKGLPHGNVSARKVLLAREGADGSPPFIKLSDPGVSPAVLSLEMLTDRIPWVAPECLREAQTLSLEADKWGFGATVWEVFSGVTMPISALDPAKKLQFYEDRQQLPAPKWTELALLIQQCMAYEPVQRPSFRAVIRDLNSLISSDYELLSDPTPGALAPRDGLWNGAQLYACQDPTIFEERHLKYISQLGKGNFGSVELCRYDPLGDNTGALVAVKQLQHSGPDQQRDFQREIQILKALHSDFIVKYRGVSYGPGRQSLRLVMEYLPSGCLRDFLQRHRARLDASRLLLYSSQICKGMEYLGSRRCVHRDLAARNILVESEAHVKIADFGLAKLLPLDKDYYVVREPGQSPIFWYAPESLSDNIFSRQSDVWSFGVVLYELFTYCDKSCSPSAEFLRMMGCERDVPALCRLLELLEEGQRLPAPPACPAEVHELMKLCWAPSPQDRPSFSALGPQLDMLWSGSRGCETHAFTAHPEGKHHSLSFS
# CDK4/Cyclin D3 = CDK4/Cyclin D3 (Homo sapiens, UniProt P11802); assay: Inhibition of recombinant full length human CDK4/CyclinD3 using Rb fragment as substrate incubated for 30 mins in presence of [gamma33P]-ATP by scintillation counting based radiometry assay; type: protein-complex assay
# Chain of CDK4/Cyclin D3 (P11802 whole entry, the tested form may be a part): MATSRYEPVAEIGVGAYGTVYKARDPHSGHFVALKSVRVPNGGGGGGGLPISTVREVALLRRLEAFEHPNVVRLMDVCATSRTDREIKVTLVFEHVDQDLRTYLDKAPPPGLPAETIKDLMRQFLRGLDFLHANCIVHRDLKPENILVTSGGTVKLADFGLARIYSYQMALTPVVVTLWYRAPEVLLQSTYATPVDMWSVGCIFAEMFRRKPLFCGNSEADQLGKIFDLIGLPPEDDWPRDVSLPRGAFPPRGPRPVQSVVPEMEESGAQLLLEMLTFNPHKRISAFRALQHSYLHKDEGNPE
# Chain of CDK4/Cyclin D3 (P30281 whole entry, further chain, the tested form may be a part): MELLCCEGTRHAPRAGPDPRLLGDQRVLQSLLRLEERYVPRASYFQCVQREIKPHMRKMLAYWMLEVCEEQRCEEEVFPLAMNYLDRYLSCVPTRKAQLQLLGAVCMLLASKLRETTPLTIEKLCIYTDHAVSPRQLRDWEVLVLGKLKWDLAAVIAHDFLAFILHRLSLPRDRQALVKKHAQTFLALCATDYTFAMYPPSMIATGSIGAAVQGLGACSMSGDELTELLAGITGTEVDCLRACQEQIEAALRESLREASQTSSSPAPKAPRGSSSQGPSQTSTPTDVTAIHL
# MV4-11 [3] = assay: Induction of apoptosis in human MV4-11 cells assessed as early apoptotic cells at 0.8 uM after 24 hrs by Annexin V FITC/PI staining based flow cytometry analysis (reference value: 2.14%); type: functional
# MDA-MB-453 = assay: Antiproliferative activity against human MDA-MB-453 cells assessed as reduction in cell growth after 72 hrs by MTT assay; type: functional, cell-based
# MV4-11 [4] = assay: Induction of apoptosis in human MV4-11 cells assessed as early apoptotic cells at 0.05 uM after 24 hrs by Annexin V FITC/PI staining based flow cytometry analysis (reference value: 2.14%); type: functional
# IEC-6 = assay: Cytotoxicity against rat IEC-6 cells assessed as cell viability after 72 hrs by MTT assay; type: cell-based; conditions: iec-6, 72 h
# Cytochrome P450 2C19 = Cytochrome P450 2C19 (Homo sapiens, UniProt P33261); assay: Inhibition of CYP2C19 (unknown origin); type: ADME
# Chain of Cytochrome P450 2C19 (P33261 whole entry): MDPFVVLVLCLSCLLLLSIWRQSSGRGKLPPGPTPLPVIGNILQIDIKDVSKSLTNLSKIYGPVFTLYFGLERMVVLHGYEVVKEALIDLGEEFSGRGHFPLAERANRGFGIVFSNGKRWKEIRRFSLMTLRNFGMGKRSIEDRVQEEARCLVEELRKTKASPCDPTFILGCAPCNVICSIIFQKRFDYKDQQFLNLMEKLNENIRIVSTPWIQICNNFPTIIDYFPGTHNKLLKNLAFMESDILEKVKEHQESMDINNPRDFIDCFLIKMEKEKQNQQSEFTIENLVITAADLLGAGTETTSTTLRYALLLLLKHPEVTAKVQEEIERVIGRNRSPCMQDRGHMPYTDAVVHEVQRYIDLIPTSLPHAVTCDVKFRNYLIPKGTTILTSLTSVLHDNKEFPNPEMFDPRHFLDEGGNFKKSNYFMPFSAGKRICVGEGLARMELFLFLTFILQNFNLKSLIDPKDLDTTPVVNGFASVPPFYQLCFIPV
# MV4-11 [5] = assay: Induction of cell cycle arrest in human MV4-11 cells assessed as accumulation at G2/M phase at 0.1 uM after 24 hrs by propidium iodide staining based flow cytometry analysis (reference value: 15.4%); type: functional
# [6] = target: T2, Tyrosine-protein kinase JAK3 (Homo sapiens) (UniProt P52333); assay: Inhibition of human JAK3 (781 to end residues) assessed as residual activity at 100 nM using GGEEEEYFELVKK as substrate after 40 mins in presence of [gamma33P]-ATP by scintillation counting based radiometric assay relative to control
# T2 sequence (whole entry): T1 sequence (P52333 whole entry)
# [7] = Intrinsic clearance in mouse liver microsomes; type: ADME, Microsome
# MOLM-13 = assay: Antiproliferative activity against FLT3-ITD-positive human MOLM13 cells assessed as reduction in cell growth after 72 hrs by MTT assay; type: functional, cell-based; conditions: MOLM-13, 72 h
# MV4-11 [8] = assay: Induction of apoptosis in human MV4-11 cells assessed as early apoptotic cells at 0.4 uM after 24 hrs by Annexin V FITC/PI staining based flow cytometry analysis (reference value: 2.14%); type: functional
# Homo sapiens = organism: Homo sapiens; assay: Inhibition of JAK2 V617F mutant/FLT3 in human SET2 cells assessed as reduction in JAK2 phosphorylation at 0.2 uM after 2 hrs by Western blot analysis; type: cell-based
# MV4-11 [9] = assay: Inhibition of JAK2/FLT3 ITD mutant in human MV4-11 cells assessed as reduction in JAK2 phosphorylation at 0.2 uM after 2 hrs by Western blot analysis; type: cell-based
# NCI-H460 = assay: Antiproliferative activity against human NCI-H460 cells assessed as reduction in cell growth after 72 hrs by MTT assay; type: functional, cell-based
# [10] = Tmax in Sprague-Dawley rat at 5 mg/kg, po measured up to 24 hrs by LC/MS/MS analysis; type: ADME, organism-based; conditions: in vivo, 24 h
# MV4-11 [11] = assay: Induction of apoptosis in human MV4-11 cells assessed as late apoptotic cells at 0.05 uM after 24 hrs by Annexin V FITC/PI staining based flow cytometry analysis (reference value: 1.38%); type: functional
# [12] = target: Receptor-type tyrosine-protein kinase FLT3 (Homo sapiens, UniProt P36888, D835Y); assay: Inhibition of recombinant human FLT3 D835Y mutant (564 to end residues) using EAIYAAPFAKKK as substrate incubated for 40 mins in presence of [gamma33P]-ATP by scintillation counting based radiometry assay
# JAK3/JAK1 = JAK3/JAK1 (Homo sapiens, UniProt P23458+P52333); assay: Inhibition of JAK1/JAK3 in human THP-1 cells assessed as reduction in IL-4-induced STAT6 phosphorylation by flow cytometry; type: cell-based
# Chain of JAK3/JAK1 (P23458 whole entry, one chain of several): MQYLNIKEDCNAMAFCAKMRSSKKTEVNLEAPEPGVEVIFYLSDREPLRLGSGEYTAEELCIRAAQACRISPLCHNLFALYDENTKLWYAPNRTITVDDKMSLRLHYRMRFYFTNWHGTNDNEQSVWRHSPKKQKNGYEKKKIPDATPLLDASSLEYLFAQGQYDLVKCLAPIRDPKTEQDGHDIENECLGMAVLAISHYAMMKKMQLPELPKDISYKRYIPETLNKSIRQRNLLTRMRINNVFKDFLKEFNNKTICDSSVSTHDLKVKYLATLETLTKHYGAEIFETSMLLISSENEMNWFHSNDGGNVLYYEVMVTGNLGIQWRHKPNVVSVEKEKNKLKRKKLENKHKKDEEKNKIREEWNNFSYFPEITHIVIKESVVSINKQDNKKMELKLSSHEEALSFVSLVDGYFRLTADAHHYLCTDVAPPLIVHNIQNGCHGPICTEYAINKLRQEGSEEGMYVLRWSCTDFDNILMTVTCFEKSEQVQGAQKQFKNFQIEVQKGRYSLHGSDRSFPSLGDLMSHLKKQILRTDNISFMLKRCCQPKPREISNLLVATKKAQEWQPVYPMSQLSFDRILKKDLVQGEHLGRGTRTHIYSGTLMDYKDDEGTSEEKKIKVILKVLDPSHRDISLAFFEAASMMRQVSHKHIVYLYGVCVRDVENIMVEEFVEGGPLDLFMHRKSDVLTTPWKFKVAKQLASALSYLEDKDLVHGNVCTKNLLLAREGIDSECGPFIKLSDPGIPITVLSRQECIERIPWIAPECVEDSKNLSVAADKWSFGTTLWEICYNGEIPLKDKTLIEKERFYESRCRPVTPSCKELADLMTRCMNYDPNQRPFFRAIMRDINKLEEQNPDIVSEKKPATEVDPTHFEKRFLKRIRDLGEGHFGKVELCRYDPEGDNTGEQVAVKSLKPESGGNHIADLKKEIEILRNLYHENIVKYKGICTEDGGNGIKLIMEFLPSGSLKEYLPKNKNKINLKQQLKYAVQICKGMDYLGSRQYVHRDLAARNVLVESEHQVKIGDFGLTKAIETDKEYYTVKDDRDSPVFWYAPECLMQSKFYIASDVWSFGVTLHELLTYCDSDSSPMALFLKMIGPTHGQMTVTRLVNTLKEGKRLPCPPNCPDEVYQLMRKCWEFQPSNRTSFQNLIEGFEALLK
# MV4-11 [13] = assay: Induction of apoptosis in human MV4-11 cells assessed as necrotic cells at 0.8 uM after 24 hrs by Annexin V FITC/PI staining based flow cytometry analysis (reference value: 0.18%); type: functional
# MV4-11 [14] = assay: Induction of apoptosis in human MV4-11 cells assessed as early apoptotic cells at 1.6 uM after 24 hrs by Annexin V FITC/PI staining based flow cytometry analysis (reference value: 2.14%); type: functional
smiles,measurement,setting,value
Cc1cnc(Nc2ccc(N3CCC(N(C)CCO)CC3)c(F)c2)nc1-c1cnn(C(C)C)c1,Activity,[1],Non-Toxic
same,IC50,[2],39 nM
same,IC50,CDK4/Cyclin D3,18 nM
same,Activity,MV4-11 [3],23.4%
same,Activity,MDA-MB-453,Active
same,Activity,MV4-11 [4],5.53%
same,Activity,IEC-6,Non-Toxic
same,IC50,Cytochrome P450 2C19,74.7 µM
same,Activity,MV4-11 [5],5.04%
same,Activity,[6],36%
same,CLH,[7],0.0018 mL/min/mg
same,IC50,MOLM-13,72 nM
same,Activity,MV4-11 [8],21.2%
same,inhibition,Homo sapiens,Active
same,inhibition,MV4-11 [9],Active
same,Activity,NCI-H460,Active
same,Tmax,[10],1.5 h
same,Activity,MV4-11 [11],4.55%
same,IC50,[12],4 nM
same,IC50,JAK3/JAK1,578 nM
same,Activity,MV4-11 [13],0.93%
same,Activity,MV4-11 [14],33.6%
